The values that follow come from EP4700025A1, “AMIDE COMPOUND, PHARMACEUTICAL COMPOSITION COMPRISING SAME, AND USE THEREOF” (Suzhou Genhouse Bio Co., Ltd., priority 2023, dated 2024).

Series [1] is described as follows: Pharmacokinetic assay in mice. The following applies: mouse; for MRT inf: read-out: MRT(0-∞). Format: in vivo, Balb/c mice. The protocol: Eighteen male Balb/c mice aged 6 to 8 weeks were randomly divided into 2 groups (IV group and PO group). The corresponding compounds were administered to the animals in the IV group by tail intravenous injection at 2 mg/kg, and the corresponding compounds were administered to the animals in the PO group by oral gavage at 10 mg/kg or 100 mg/kg. The animals in the IV group were allowed free access to food and water, and the animals in the PO group were fasted overnight before administration and were fed 4 h after administration. Throughout the experiment, the animals were allowed free access to water. Plasma samples were separately collected at 0.083 h (only group IV), 0.25 h, 0.5 h, 1 h, 2 h, 4 h, 8 h, and 24 h after administration. About 100 µL of blood was collected from the orbit of the animal, placed into a 1.5 mL anticoagulation centrifuge tube, and centrifuged at 8000 rpm and 4 °C for 10 min. The upper plasma sample was transferred to an EP tube. The plasma samples were stored in a refrigerator at -80 °C until sample analysis. Pharmacokinetic parameters of the drug were calculated based on the drug concentration-time data, including the peak concentration Cmax, peak time Tmax, clearance rate CL, steady state apparent volume of distribution Vss, area under drug-time curve AUC, elimination half-life t1/2, bioavailability, and the like. Data below the 80% lower limit of quantification were excluded from the calculation of pharmacokinetic parameters.

Series [2] has as its target T1, hERG Potassium Ion Channel (Homo sapiens, UniProt Q12809).
T1 construct: expressed in transfected cells; host or cells: HEK293
The series is described as follows: Effect on hERG potassium ion channel (whole-cell patch clamp, HEK293 cells). Format: cell-based. The conditions noted are these: whole-cell patch clamp (Qpatch), room temperature. On the procedure: HEK293 cells were cultured in a DMEM medium containing 10% fetal bovine serum and 0.8 mg/mL G418 at 37 °C with 5% CO2. The cells were digested by TrypLE™ Express and then centrifuged. The cell density was adjusted to 2 × 10^6 cells/mL. The cells were then gently mixed for 15 to 20 min using a shaker equilibrated at room temperature, and subjected to a patch clamp assay on a machine. The culture medium of the prepared cells was replaced with extracellular fluid. The intracellular fluid and the extracellular fluid were taken from the fluid pool and added to the intracellular fluid pool and the cell and test substance pool of the QPlate chip, respectively. The voltage stimulation of the whole-cell hERG potassium current was recorded by the whole-cell patch clamp, and the experimental data were collected and stored by Qpatch. […] The current detected in compound-free extracellular fluid for each cell served as its own control group, and the detection was repeated twice independently using at least two cells per concentration. […] For data analysis, the current after the action of each drug concentration and the current of the blank control were standardized ((Peak tail currentcompound)/(Peak tail currentvehicle)) [formula] , and then the inhibition rate corresponding to each drug concentration was calculated (1−(Peak tail currentcompound)/(Peak tail currentvehicle)) [formula] . […]
(hERG is a cardiac potassium channel; its block is linked to QT prolongation.)

Series [3] is described as follows: Pharmacokinetic assay in rats. The format is in vivo, SD rats. The following applies: rat. On the procedure:
In this experimental example, the pharmacokinetic behavior of the test compounds after administration by intravenous injection (IV) and oral gavage (PO) in SD rats was tested.
On the day of administration, rats were weighed for actual body weight, and the administration volume was calculated. Each compound was tested in two groups with 3 rats in each group; one group was subjected to administration by single intravenous injection, and the other group was subjected to administration by single oral gavage. The whole blood samples were collected via the jugular vein at prescribed time points (0.25 h, 0.5 h, 1 h, 2 h, 4 h, 8 h, and 24 h after administration). After the blood sample collection, the samples were immediately transferred to labeled commercial sample tubes containing K2-EDTA (0.85-1.15 mg), followed by centrifugation (3200× g, 4 °C, 10 min) and plasma collection. The plasma was transferred to a pre-cooled centrifuge tube, frozen in dry ice, and then stored in an ultra-low temperature freezer at -60 °C or lower until the LC-MS/MS analysis was performed.
Plasma concentrations were determined by the LC-MS/MS method. Plasma drug concentration data for the compounds were processed using a non-compartmental model in the WinNonlin Version 6.3 (Pharsight, Mountain View, CA) pharmacokinetic software. The relevant pharmacokinetic parameters were calculated by a linear-log trapezoidal method.

Series [4] concerns the target PRMT5 (Homo sapiens, UniProt O14744). The series is described as follows: Inhibitory activity against enzymatic activity of PRMT5 (fluorescence polarization). Format: biochemical. The following applies: PRMT5 25 nM, SAM 1 µM, polypeptide 1 µM, MTA 2 µM; 37 °C 2 hours. The protocol: The compounds were prepared into 10 mM stock solutions using DMSO, and then 9 concentration gradients (with an initial concentration of 10 µM followed by 1:5 dilution) were prepared using a buffer (50 mM Tris-HCl pH 8.5, 5 mM MgCl2, 4 mM DTT, 0.01% Triton X-100, 0.1 M NaCl, 0.5% DMSO), and each well received 5 µL of the diluted compound solutions. SAM, a polypeptide, and MTA were prepared using a buffer to final concentrations of 1 µM, 1 µM, and 2 µM, respectively, and were added to each well in a total of 5 µL. Meanwhile, an MTA-free group was set as a control. […] Subsequently, a mixture of 2.5 µL of stop buffer A, 2.5 µL of an 8× MT assay mixture (final concentration: 1×), and 24 µg/mL AMP2/GMP2 antibodies (final concentration: 3 µg/mL) was added. The resulting mixture was incubated at room temperature for 1.5 hours, and fluorescence polarization (FP) was measured (Ex 633, Em 647). Meanwhile, negative control wells without protein (Blank) and positive control wells without compound (DMSO) were set. Each experiment was independently repeated three times.
Data processing: The numerical values of each group were recorded for statistical analysis, and the inhibition rate was calculated according to the following formula: inhibition percentage of compound wells (% inh) = [1 - (ave Blank - Cpd well)/(ave Blank - ave DMSO control)] × 100. Note: ave represents the average value, and Cpd represents the numerical value of the wells containing the compound. A sigmoidal dose-inhibition rate curve was plotted and fitted using a nonlinear regression model in the GraphPad Prism 7.0 software, and the IC50 value was calculated. Table 1. Inhibitory activity of compounds against enzymatic activity of PRMT5
On the technique in general: Fluorescence polarisation rises when a labelled molecule tumbles more slowly, as on binding a larger partner.

For series [5], the system named is SDMA. The experiment in a line: SDMA Inhibition Assay in A549 cells. The format is cell-based. The following applies: Homo sapiens, A549, 96 hours.
Series [6] deals with SDMA. The series is described as follows: SDMA Inhibition Assay in HCT-116 cells. Format: cell-based. The conditions noted are these: Homo sapiens, HCT-116, 96 hours.
Series [7] concerns HCT-116. The series is described as follows: CCK8 proliferation inhibition, HCT-116. The following applies: Homo sapiens, 192 h, CCK8, 8 days after drug treatment. The format is cell-based.
Series [8] relates to SDMA. The experiment in a line: SDMA Inhibition Assay in HCT-116-MTAP^-/- cells. The conditions noted are these: Homo sapiens, 96 hours. The format is cell-based.
Series [9] has as its system HCT-116-MTAP^-/- cells. The experiment in a line: Pharmacodynamic study, HCT-116-MTAP^-/- subcutaneous xenograft. The following applies: HCT-116-MTAP^-/- xenograft, 60 mpk PO QD. Format: in vivo, mouse. On the procedure: Human colon cancer HCT-116-MTAP^-1- cells were cultured in monolayer in vitro using the McCoy 5A culture medium (HyClone) containing 10% fetal bovine serum (BI) and 1% penicillin and streptomycin (Beyotime) in an incubator at 37 °C with 5% CO2. The cells were digested with trypsin 2 to 3 times weekly for passaging. When the saturation degree of the cells was 80% to 90%, the cells were collected, counted, and inoculated. 5 × 10^6 (0.1 mL) HCT-116-MTAP^-/- cells were subcutaneously inoculated on the right back of each mouse. On about day 15 after inoculation of the cells, the mean tumor volume reached 172 mm^3. The mice were randomly grouped for administration (the animals were divided into an administration group and a control group, with 6 animals in each group). The day of grouping was designated as d0, and intragastric administration was started on d1. The administration was performed once daily at an administration volume of 10 mL/kg. Vehicle control was administered to the control group. The tumor volume was measured 2 to 3 times weekly, and meanwhile, the mice were weighed and the data were recorded; daily observations were made to record the body surface signs of the mice. After the experiment was completed, the tumors were collected, weighed, and photographed for recording.
Calculation formula for tumor volume: Tumor volume (mm^3) = 1/2 × (a×b^2) [formula] (note: a represents long diameter and b represents short diameter) [formula]

Series [10] concerns A549. The experiment in a line: CCK8 proliferation inhibition, A549. Format: cell-based. The conditions noted are these: Homo sapiens, 192 h, CCK8, 8 days after drug treatment. The protocol:
The above normally growing cells were digested with a cell trypsinization solution, centrifuged, counted, and seeded into a 96-well plate at an appropriate cell density (2000 cells/well) at 100 µL/well. The next day after cell seeding, the compounds at different concentrations were added to the wells. Three replicate wells were set for each concentration point, and a corresponding DMSO negative control group was also set. CCK8 solution was added to each well 8 days after drug treatment. The plate was incubated at 37 °C for a period of time (OD450 of the vehicle group reached 1.0 or higher) before the absorbance at 450 nm was read using a microplate reader. The inhibition rates were calculated, and the EC50 values were determined by fitting using the GraphPad Prism 7.0 software. Table 2. EC50 values of compounds at cellular level

In series [11] the test system is HCT-116-MTAP^-/-. The series is described as follows: CCK8 proliferation inhibition, HCT-116-MTAP^-/-. Format: cell-based. The following applies: Homo sapiens, 192 h; HCT-116-MTAP^-/- (MTAP-deficient); CCK8, 8 days after drug treatment.
Setting [12] is: male, Balb/c, plasma, 2 mg/kg, IV 2mpk.
Setting [13] is: male, Balb/c, plasma, 100 mg/kg, PO 100mpk.
[14] abbreviates: SD, plasma, 100 mg/kg, PO 100mpk.
Setting [15] is: male, Balb/c, plasma, 10 mg/kg, PO 10mpk.

Read-outs that look alike come from different tables or passages of the source.

T1 sequence (Q12809 whole entry): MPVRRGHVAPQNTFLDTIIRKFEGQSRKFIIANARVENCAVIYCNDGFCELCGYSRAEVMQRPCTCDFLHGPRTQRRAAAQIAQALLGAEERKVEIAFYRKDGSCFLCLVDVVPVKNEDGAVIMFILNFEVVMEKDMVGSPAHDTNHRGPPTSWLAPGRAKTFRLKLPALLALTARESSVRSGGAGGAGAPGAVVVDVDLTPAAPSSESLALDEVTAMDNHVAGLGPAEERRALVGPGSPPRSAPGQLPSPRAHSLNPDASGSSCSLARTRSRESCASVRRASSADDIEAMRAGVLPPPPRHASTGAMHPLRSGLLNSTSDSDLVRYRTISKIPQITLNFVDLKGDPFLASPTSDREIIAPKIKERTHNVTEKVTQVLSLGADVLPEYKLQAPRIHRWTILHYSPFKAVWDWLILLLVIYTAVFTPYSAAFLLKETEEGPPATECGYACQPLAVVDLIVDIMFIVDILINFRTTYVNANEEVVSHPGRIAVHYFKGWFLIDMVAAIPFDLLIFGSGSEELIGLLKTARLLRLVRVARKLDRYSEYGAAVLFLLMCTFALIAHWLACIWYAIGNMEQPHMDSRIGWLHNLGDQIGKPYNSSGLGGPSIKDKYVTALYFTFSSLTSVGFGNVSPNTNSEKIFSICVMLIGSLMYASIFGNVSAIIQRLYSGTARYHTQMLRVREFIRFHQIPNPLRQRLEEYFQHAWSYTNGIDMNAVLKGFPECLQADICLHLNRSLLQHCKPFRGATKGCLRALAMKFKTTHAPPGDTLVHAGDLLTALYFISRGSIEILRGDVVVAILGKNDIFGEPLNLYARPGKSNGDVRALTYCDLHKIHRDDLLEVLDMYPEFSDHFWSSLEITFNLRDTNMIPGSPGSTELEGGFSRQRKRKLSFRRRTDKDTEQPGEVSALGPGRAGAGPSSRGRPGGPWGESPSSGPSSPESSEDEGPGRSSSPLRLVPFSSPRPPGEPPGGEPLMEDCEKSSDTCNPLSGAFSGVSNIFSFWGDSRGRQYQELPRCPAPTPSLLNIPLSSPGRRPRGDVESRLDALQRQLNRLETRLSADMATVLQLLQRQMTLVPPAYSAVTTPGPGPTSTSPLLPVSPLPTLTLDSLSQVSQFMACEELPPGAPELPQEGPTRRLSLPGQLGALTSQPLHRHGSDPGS
Chain of PRMT5 (O14744 whole entry): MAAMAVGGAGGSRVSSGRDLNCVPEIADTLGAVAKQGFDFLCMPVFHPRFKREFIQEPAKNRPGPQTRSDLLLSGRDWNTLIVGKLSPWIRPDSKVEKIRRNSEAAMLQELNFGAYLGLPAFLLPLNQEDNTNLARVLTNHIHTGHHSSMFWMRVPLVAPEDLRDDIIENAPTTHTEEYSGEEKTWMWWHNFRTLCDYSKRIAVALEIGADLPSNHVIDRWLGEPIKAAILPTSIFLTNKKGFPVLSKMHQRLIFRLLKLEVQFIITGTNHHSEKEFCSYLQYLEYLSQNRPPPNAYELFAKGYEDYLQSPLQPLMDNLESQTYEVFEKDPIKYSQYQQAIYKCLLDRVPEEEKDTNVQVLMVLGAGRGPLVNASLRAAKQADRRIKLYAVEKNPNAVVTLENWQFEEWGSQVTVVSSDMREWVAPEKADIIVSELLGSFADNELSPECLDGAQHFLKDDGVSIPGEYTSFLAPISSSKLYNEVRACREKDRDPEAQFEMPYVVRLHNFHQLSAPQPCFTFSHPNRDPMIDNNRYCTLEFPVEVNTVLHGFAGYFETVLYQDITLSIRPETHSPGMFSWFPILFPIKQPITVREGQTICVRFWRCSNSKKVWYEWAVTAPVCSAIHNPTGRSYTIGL
Chain of PRMT5 (Q9BQA1 whole entry partner): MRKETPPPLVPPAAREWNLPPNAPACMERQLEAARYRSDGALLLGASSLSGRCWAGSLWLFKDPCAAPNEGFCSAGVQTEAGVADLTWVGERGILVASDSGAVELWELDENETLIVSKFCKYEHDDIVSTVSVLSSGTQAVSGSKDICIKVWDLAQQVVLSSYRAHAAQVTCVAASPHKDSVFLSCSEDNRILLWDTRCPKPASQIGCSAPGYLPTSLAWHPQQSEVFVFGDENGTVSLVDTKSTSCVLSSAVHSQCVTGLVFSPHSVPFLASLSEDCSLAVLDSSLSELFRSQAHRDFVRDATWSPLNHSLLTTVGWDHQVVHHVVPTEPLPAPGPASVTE

For the compound `Cn1ncc2c(N)nc3cnc(C(=O)N4CCOC[C@@H]4c4ccc(C(F)(F)F)cc4)cc3c21` [Control compound A, reference compound], the AUC(0-t) (in general, the area under the concentration-time curve up to a stated or last time point) in series [1] (setting [12]) was determined as 9.6 µM·h; in series [1] (setting [13]), 455 µM·h; in series [3] (SD, plasma, 2 mg/kg, IV 2mpk) it was 4.75 µM·h; in [3] (setting [14]), 122 µM·h. Further, the highest concentration (Cmax) (commonly the highest concentration seen after dosing) in series [1] (setting [13]) is 35.7 µM; in series [3] (setting [14]), 5.42 µM. For the same compound, the midpoint of inhibition in [2], the IC50, lay at 13000 nM. This compound gave a F in series [3] (PO 100mpk vs IV 2 mpk) of 51%.
For `CN(Cc1ccc2c(c1)OC(F)(F)O2)C(=O)c1cc2c(cc1F)nc(N)c1cnn(C)c12` [Example I-1], the IC50 (commonly the concentration at which inhibition is half-maximal) in series [4] came out at 48.5 nM. Also, in series [5], the EC50 (commonly the concentration needed to bring the measured effect to its halfway point) stood at 1.4 nM. Moreover, the EC50 in [6] turned out to be 220 nM. Further, the EC50 in [7] worked out at 3230 nM. The compound further had an EC50 in series [8] of 1.5 nM. In addition, the “Day 28 TGI” value in series [9] was 85%. In [1] (setting [12]), the AUC(0-inf) (commonly total exposure, with the tail of the curve extrapolated) amounted to 5.69 µM·h; the AUC(0-t) is 5.45 µM·h; the C0 turned out to be 3.52 µM; the MRT inf amounted to 2.3 h. Besides, the Vd in [1] (male, Balb/c, plasma, 2 mg/kg, IV 2mpk, read-out: Vz) was 2 L/kg. For the same compound, in series [1] (setting [15]), the AUC(0-inf) was 18.4 µM·h, the AUC(0-t) is 18.1 µM·h, the highest level (Cmax) was 3.24 µM and the time of peak concentration (Tmax) (commonly the time from dosing to the highest level) came out at 1 h. The MRT inf in series [1] (setting [15]) amounted to 5.5 h. In addition, in series [1] (IV 2mpk), the CLz was found to be 13 mL/min/kg, the “R_AUC(t/∞)” value is given as 95.8% and the t1/2z turned out to be 1.8 h. Besides, in series [1] (PO 10mpk), the “R_AUC(t/∞)” value was found to be 98.3% and the t1/2z came out at 4.1 h. The compound further came in with a F in series [1] (PO 10mpk vs IV 2mpk) of 64.7%. Also, the response in series [10] was half-maximal at 41.8 nM (EC50). The same compound yielded an EC50 in series [11] of 4.2 nM.
